Measured values taken from BindingDB's records for doi:10.1021/jm950372w (Rotta Research Laboratorium, 1996).
Counter-ions that a name gives are not always drawn.

Assays:
[1] = molecular target: Gastrin/cholecystokinin type B receptor (Oryctolagus cuniculus); assay: In vitro inhibition of gastrin-induced [Ca2+] cytosolic elevation in isolated rabbit parietal cells
[2] = molecular target: Gastrin/cholecystokinin type B receptor (Cavia porcellus); assay: Inhibition of binding of [3H]N-Me-N-Leu-CCK-8 to cholecystokinin type B receptor in guinea pig brain cortex

IC50 [1] [nM] | IC50 [2] [nM] | SMILES
80 | 390 | O=C(CCC(NC(=O)c1cc(Cl)cc(Cl)c1)C(=O)N1CCC2(CCCC2)CC1)NC(C(=O)O)c1ccccc1 (stereo not given) [[5-(8-Aza-spiro[4.5]dec-8-yl)-4-(3,5-dichloro-benzoylamino)-5-oxo-pentanoylamino]-phenyl-acetic acid]
173 | 320 | O=C(CCC(NC(=O)c1cc(Cl)cc(Cl)c1)C(=O)N1CCC2(CCCC2)CC1)NC(Cc1ccc(O)cc1)C(=O)O (stereo not given) [2-[5-(8-Aza-spiro[4.5]dec-8-yl)-4-(3,5-dichloro-benzoylamino)-5-oxo-pentanoylamino]-3-(4-hydroxy-phenyl)-propionic acid]
568 | 1760 | O=C(CCC(NC(=O)c1cc(Cl)cc(Cl)c1)C(=O)N1CCC2(CCCC2)CC1)Nc1ccc(C(=O)O)cc1 (stereo not given) [4-[5-(8-Aza-spiro[4.5]dec-8-yl)-4-(3,5-dichloro-benzoylamino)-5-oxo-pentanoylamino]-benzoic acid]
17 | 85 | O=C(O)CC[C@@H](NC(=O)CCC(NC(=O)c1cc(Cl)cc(Cl)c1)C(=O)N1CCC2(CCCC2)CC1)C(=O)Nc1cccc2ccccc12 (stereo partly drawn) [(R)-4-[5-(8-Aza-spiro[4.5]dec-8-yl)-4-(3,5-dichloro-benzoylamino)-5-oxo-pentanoylamino]-4-(naphthalen-1-ylcarbamoyl)-butyric acid]
1040 | 1020 | O=C(O)CNC(=O)CCC(NC(=O)c1cc(Cl)cc(Cl)c1)C(=O)N1CCC2(CCCC2)CC1 (stereo not given) [[5-(8-Aza-spiro[4.5]dec-8-yl)-4-(3,5-dichloro-benzoylamino)-5-oxo-pentanoylamino]-acetic acid]
118 | 727 | O=C(O)CC[C@H](NC(=O)CCC(NC(=O)c1cc(Cl)cc(Cl)c1)C(=O)N1CCC2(CCCC2)CC1)C(=O)Nc1ccc2c(c1)CCC2 (stereo partly drawn) [(S)-4-[5-(8-Aza-spiro[4.5]dec-8-yl)-4-(3,5-dichloro-benzoylamino)-5-oxo-pentanoylamino]-4-(indan-5-ylcarbamoyl)-butyric acid]
86 | 157 | O=C(O)CCC(Cc1ccccc1)NC(=O)CCC(NC(=O)c1cc(Cl)cc(Cl)c1)C(=O)N1CCC2(CCCC2)CC1 (stereo not given) [4-[5-(8-Aza-spiro[4.5]dec-8-yl)-4-(3,5-dichloro-benzoylamino)-5-oxo-pentanoylamino]-5-phenyl-pentanoic acid]
9 | 40 | O=C(CCC(NC(=O)c1cc(Cl)cc(Cl)c1)C(=O)N1CCC2(CCCC2)CC1)N[C@H](Cc1c[nH]c2ccccc12)C(=O)O (stereo partly drawn) [(R)-2-[5-(8-Aza-spiro[4.5]dec-8-yl)-4-(3,5-dichloro-benzoylamino)-5-oxo-pentanoylamino]-3-(1H-indol-3-yl)-propionic acid]
307 | 155 | O=C(CCC(NC(=O)c1cc(Cl)cc(Cl)c1)C(=O)N1CCC2(CCCC2)CC1)N[C@H](Cc1ccccn1)C(=O)O (stereo partly drawn) [(R)-2-[5-(8-Aza-spiro[4.5]dec-8-yl)-4-(3,5-dichloro-benzoylamino)-5-oxo-pentanoylamino]-3-pyridin-2-yl-propionic acid]
49 | 140 | O=C(O)CC[C@H](NC(=O)CCC(NC(=O)c1cc(Cl)cc(Cl)c1)C(=O)N1CCC2(CCCC2)CC1)C(=O)N1CCc2ccccc2C1 (stereo partly drawn) [(S)-4-[5-(8-Aza-spiro[4.5]dec-8-yl)-4-(3,5-dichloro-benzoylamino)-5-oxo-pentanoylamino]-5-(3,4-dihydro-1H-isoquinolin-2-yl)-5-oxo-pentanoic acid]
142 | 612 | O=C(CCC(NC(=O)c1cc(Cl)cc(Cl)c1)C(=O)N1CCC2(CCCC2)CC1)N[C@H](CC1CCCCC1)C(=O)O (stereo partly drawn) [(R)-2-[5-(8-Aza-spiro[4.5]dec-8-yl)-4-(3,5-dichloro-benzoylamino)-5-oxo-pentanoylamino]-3-cyclohexyl-propionic acid]
200 | 1350 | O=C(O)C[C@@H](NC(=O)CCC(NC(=O)c1cc(Cl)cc(Cl)c1)C(=O)N1CCC2(CCCC2)CC1)C(=O)N1CCC2(CCCC2)CC1 (stereo partly drawn) [(R)-4-(8-Aza-spiro[4.5]dec-8-yl)-3-[5-(8-aza-spiro[4.5]dec-8-yl)-4-(3,5-dichloro-benzoylamino)-5-oxo-pentanoylamino]-4-oxo-butyric acid]
12 | 44 | O=C(CC[C@H](NC(=O)CCC(NC(=O)c1cc(Cl)cc(Cl)c1)C(=O)N1CCC2(CCCC2)CC1)C(=O)O)Nc1cccc2ccccc12 (stereo partly drawn) [(S)-2-[5-(8-Aza-spiro[4.5]dec-8-yl)-4-(3,5-dichloro-benzoylamino)-5-oxo-pentanoylamino]-4-(naphthalen-1-ylcarbamoyl)-butyric acid]
38 | 427 | O=C(O)CC[C@@H](NC(=O)CCC(NC(=O)c1cc(Cl)cc(Cl)c1)C(=O)N1CCC2(CCCC2)CC1)C(=O)NCc1ccccc1 (stereo partly drawn) [(R)-4-[5-(8-Aza-spiro[4.5]dec-8-yl)-4-(3,5-dichloro-benzoylamino)-5-oxo-pentanoylamino]-4-benzylcarbamoyl-butyric acid]
37 | 141 | O=C(O)CC[C@H](NC(=O)CCC(NC(=O)c1cc(Cl)cc(Cl)c1)C(=O)N1CCC2(CCCC2)CC1)C(=O)N1CCC2(CCCC2)CC1 (stereo partly drawn) [(S)-5-(8-Aza-spiro[4.5]dec-8-yl)-4-[5-(8-aza-spiro[4.5]dec-8-yl)-4-(3,5-dichloro-benzoylamino)-5-oxo-pentanoylamino]-5-oxo-pentanoic acid]
1220 |  | O=C(O)CC[C@@H](NC(=O)c1cc(Cl)cc(Cl)c1)C(=O)N1CCC2(CCCC2)CC1 [(R)-5-(8-Aza-spiro[4.5]dec-8-yl)-4-(3,5-dichloro-benzoylamino)-5-oxo-pentanoic acid]

Continued, compound first:

SMILES | IC50 [1] [nM] | IC50 [2] [nM]
CCCCCN(CCCCC)C(=O)[C@H](CCC(=O)O)NC(=O)CCC(NC(=O)c1cc(Cl)cc(Cl)c1)C(=O)N1CCC2(CCCC2)CC1 (stereo partly drawn) [(S)-4-[5-(8-Aza-spiro[4.5]dec-8-yl)-4-(3,5-dichloro-benzoylamino)-5-oxo-pentanoylamino]-4-dipentylcarbamoyl-butyric acid] | 48 | 135
CN(Cc1ccccc1)C(=O)C[C@H](NC(=O)CCC(NC(=O)c1cc(Cl)cc(Cl)c1)C(=O)N1CCC2(CCCC2)CC1)C(=O)O (stereo partly drawn) [(S)-2-[5-(8-Aza-spiro[4.5]dec-8-yl)-4-(3,5-dichloro-benzoylamino)-5-oxo-pentanoylamino]-N-benzyl-N-methyl-succinamic acid] | 44 | 158
O=C(O)C[C@H](NC(=O)CCC(NC(=O)c1cc(Cl)cc(Cl)c1)C(=O)N1CCC2(CCCC2)CC1)C(=O)Nc1cccc2ccccc12 (stereo partly drawn) [(S)-3-[5-(8-Aza-spiro[4.5]dec-8-yl)-4-(3,5-dichloro-benzoylamino)-5-oxo-pentanoylamino]-N-naphthalen-1-yl-succinamic acid] | 19 | 215
O=C(O)CC[C@H](NC(=O)CCC(NC(=O)c1cc(Cl)cc(Cl)c1)C(=O)N1CCC2(CCCC2)CC1)C(=O)Nc1cccc2cccnc12 (stereo partly drawn) [(S)-4-[5-(8-Aza-spiro[4.5]dec-8-yl)-4-(3,5-dichloro-benzoylamino)-5-oxo-pentanoylamino]-4-(quinolin-8-ylcarbamoyl)-butyric acid; hydrochloride] | 54 | 108
O=C(CCC(NC(=O)c1cc(Cl)cc(Cl)c1)C(=O)N1CCC2(CCCC2)CC1)N[C@@H](Cc1c[nH]c2ccccc12)C(=O)O (stereo partly drawn) [(S)-2-[5-(8-Aza-spiro[4.5]dec-8-yl)-4-(3,5-dichloro-benzoylamino)-5-oxo-pentanoylamino]-3-(1H-indol-3-yl)-propionic acid] | 35 | 216
O=C(CCC(NC(=O)c1cc(Cl)cc(Cl)c1)C(=O)N1CCC2(CCCC2)CC1)NC(Cc1c[nH]c2ccccc12)C(=O)O (stereo not given) [2-[5-(8-Aza-spiro[4.5]dec-8-yl)-4-(3,5-dichloro-benzoylamino)-5-oxo-pentanoylamino]-3-(1H-indol-3-yl)-propionic acid] | 12 | 49
CCCCC(NC(=O)CCC(NC(=O)c1cc(Cl)cc(Cl)c1)C(=O)N1CCC2(CCCC2)CC1)C(=O)O (stereo not given) [2-[5-(8-Aza-spiro[4.5]dec-8-yl)-4-(3,5-dichloro-benzoylamino)-5-oxo-pentanoylamino]-hexanoic acid] | 95 | 1060
O=C(O)CC[C@@H](NC(=O)CCC(NC(=O)c1cc(Cl)cc(Cl)c1)C(=O)N1CCC2(CCCC2)CC1)C(=O)N1CCC2(CCCC2)CC1 (stereo partly drawn) [(R)-5-(8-Aza-spiro[4.5]dec-8-yl)-4-[5-(8-aza-spiro[4.5]dec-8-yl)-4-(3,5-dichloro-benzoylamino)-5-oxo-pentanoylamino]-5-oxo-pentanoic acid] | 206 | 1690
O=C(O)CC[C@H](NC(=O)CCC(NC(=O)c1cc(Cl)cc(Cl)c1)C(=O)N1CCC2(CCCC2)CC1)C(=O)N1CCC2CCCCC2C1 (stereo partly drawn) [(S)-4-[5-(8-Aza-spiro[4.5]dec-8-yl)-4-(3,5-dichloro-benzoylamino)-5-oxo-pentanoylamino]-5-(octahydro-isoquinolin-2-yl)-5-oxo-pentanoic acid] | 28 | 185
CCCN(CCC)C(=O)[C@H](CCC(=O)O)NC(=O)CCC(NC(=O)c1cc(Cl)cc(Cl)c1)C(=O)N1CCC2(CCCC2)CC1 (stereo partly drawn) [(S)-4-[5-(8-Aza-spiro[4.5]dec-8-yl)-4-(3,5-dichloro-benzoylamino)-5-oxo-pentanoylamino]-4-dipropylcarbamoyl-butyric acid] | 119 | 299
O=C(O)CC[C@@H](NC(=O)CCC(NC(=O)c1cc(Cl)cc(Cl)c1)C(=O)N1CCC2(CCCC2)CC1)C(=O)NCCCc1ccccc1 (stereo partly drawn) [(R)-4-[5-(8-Aza-spiro[4.5]dec-8-yl)-4-(3,5-dichloro-benzoylamino)-5-oxo-pentanoylamino]-4-(3-phenyl-propylcarbamoyl)-butyric acid] | 117 | 1860
O=C(O)CC[C@H](NC(=O)CCC(NC(=O)c1cc(Cl)cc(Cl)c1)C(=O)N1CCC2(CCCC2)CC1)C(=O)Nc1cccc2ccccc12 (stereo partly drawn) [(S)-4-[5-(8-Aza-spiro[4.5]dec-8-yl)-4-(3,5-dichloro-benzoylamino)-5-oxo-pentanoylamino]-4-(naphthalen-1-ylcarbamoyl)-butyric acid] | 7 | 20
